Target: T1, ORP2A (His-ORP2A; ORP2A-His) (Arabidopsis thaliana, UniProt Q940Y1)
T1 construct: full-length, His6 tag kept (N-terminal in pET16b; also ORP2A-His), E. coli BL21
T1 sequence (Q940Y1 1-721): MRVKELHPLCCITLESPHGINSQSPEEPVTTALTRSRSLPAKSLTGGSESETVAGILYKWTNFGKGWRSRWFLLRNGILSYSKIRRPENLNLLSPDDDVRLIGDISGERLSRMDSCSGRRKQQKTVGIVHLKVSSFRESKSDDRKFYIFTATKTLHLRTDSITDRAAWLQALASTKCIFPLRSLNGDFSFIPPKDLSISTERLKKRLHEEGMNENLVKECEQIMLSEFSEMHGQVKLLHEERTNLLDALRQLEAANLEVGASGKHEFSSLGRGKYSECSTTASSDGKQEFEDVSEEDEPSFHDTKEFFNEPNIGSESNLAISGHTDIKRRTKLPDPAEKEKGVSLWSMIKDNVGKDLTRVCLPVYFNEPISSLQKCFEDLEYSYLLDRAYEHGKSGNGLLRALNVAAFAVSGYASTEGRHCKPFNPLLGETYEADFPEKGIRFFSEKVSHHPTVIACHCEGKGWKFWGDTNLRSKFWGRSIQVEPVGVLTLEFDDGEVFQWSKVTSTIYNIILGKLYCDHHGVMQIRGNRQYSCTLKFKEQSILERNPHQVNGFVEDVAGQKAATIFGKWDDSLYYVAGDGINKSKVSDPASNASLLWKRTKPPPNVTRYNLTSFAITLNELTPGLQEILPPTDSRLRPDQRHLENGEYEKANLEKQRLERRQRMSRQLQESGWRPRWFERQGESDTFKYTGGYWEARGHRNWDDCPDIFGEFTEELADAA
Experiment: protein-lipid overlay (fat blot), anti-His immunoblot
Type: binding
Details: 15 μg sterol spotted on nitrocellulose; overnight incubation in purified protein

Compound	protein-lipid overlay (fat blot), anti-His immunoblot
CC[C@H](CC[C@@H](C)[C@H]1CC[C@H]2[C@@H]3CC=C4C[C@@H](O)CC[C@]4(C)[C@H]3CC[C@]12C)C(C)C [β-sitosterol]	recombinant ORP2A-His shows that the protein interacts with β-sitosterol, stigmasterol and campesterol
CC(C)[C@H](C)CC[C@@H](C)[C@H]1CC[C@H]2[C@@H]3CC=C4C[C@@H](O)CC[C@]4(C)[C@H]3CC[C@]12C [campesterol]	recombinant ORP2A-His shows that the protein interacts with β-sitosterol, stigmasterol and campesterol
CC[C@H](/C=C/[C@@H](C)[C@H]1CC[C@H]2[C@@H]3CC=C4C[C@@H](O)CC[C@]4(C)[C@H]3CC[C@]12C)C(C)C [stigmasterol]	recombinant ORP2A-His shows that the protein interacts with β-sitosterol, stigmasterol and campesterol
